IC50 data for 35 compounds are collected here from patent US20240270751A1, “Pyrazolopyridinone Compounds” (BeiGene Ltd., priority 2021, published 2024).

The structures appear in SMILES notation.

As usually defined, the IC50 is the midpoint of a concentration-inhibition curve.

One test concerns the target DGKα (Homo sapiens (Human), UniProt P23743). Description: Biochemical DGK IC50 assay, DGKα ADP-Glo assay. The settings on record: 7.5 nM enzyme, 140 μM ATP, 80 μM DAG. An outline of the steps: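 Compounds at final 1.55˜10000 nM or 23.3˜150000 nM were tested against full-length DGKα. Substrate was lipid micelles of DAG and PS resuspended in 25 mM HEPES pH 7.0 with 0.5 mM EDTA and 160 mM octyl β-D-glucopyranoside. ADP formed was detected by ADP-Glo.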
(ADP-Glo turns the ADP formed in a reaction into a luminescent signal.)

In the next test the target is DGKζ (Homo sapiens (Human), UniProt Q13574). Description: Biochemical DGK IC50 assay, DGKζ ADP-Glo assay. To be noted: 0.5 nM enzyme, 140 μM ATP, 80 μM DAG; read-out: DGKζ ADP-Glo assay IC50. In short, it runs like this: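 ADP formation measured by ADP-Glo luminescence, with test compounds at final 1.55–10000 nM or 23.3–150000 nM. Enzyme: purified full-length human DGKζ from Sf9 insect cells; substrate: DAG/PS micelles in 25 mM HEPES pH 7.0, 0.5 mM EDTA, octyl glucoside.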
Sequence of DGKζ (Q13574 other isoform, or with tags, fused parts or gaps): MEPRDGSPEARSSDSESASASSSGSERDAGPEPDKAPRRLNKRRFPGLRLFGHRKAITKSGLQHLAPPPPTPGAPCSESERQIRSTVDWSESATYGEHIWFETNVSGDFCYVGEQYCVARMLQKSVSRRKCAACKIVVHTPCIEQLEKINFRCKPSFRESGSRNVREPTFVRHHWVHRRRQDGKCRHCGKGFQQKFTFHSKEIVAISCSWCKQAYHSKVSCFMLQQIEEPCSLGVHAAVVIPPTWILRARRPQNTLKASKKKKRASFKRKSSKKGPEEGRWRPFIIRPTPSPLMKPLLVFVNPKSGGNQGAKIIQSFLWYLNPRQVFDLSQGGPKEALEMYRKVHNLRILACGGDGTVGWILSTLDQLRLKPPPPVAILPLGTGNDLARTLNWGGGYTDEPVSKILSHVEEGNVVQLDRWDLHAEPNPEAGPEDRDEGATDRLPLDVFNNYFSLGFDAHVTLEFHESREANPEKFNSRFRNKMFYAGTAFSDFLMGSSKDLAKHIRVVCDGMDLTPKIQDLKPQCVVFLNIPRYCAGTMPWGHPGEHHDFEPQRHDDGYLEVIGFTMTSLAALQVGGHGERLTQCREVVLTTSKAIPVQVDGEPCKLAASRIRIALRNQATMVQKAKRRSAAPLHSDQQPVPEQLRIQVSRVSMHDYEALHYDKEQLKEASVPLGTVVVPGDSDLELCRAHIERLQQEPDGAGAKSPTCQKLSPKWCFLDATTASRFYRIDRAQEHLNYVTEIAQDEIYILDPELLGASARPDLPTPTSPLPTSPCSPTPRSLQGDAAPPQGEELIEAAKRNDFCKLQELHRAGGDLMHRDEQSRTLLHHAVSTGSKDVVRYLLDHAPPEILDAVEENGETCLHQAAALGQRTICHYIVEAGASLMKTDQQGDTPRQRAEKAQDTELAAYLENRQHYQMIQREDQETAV

Sequence of DGKα (P23743 whole entry): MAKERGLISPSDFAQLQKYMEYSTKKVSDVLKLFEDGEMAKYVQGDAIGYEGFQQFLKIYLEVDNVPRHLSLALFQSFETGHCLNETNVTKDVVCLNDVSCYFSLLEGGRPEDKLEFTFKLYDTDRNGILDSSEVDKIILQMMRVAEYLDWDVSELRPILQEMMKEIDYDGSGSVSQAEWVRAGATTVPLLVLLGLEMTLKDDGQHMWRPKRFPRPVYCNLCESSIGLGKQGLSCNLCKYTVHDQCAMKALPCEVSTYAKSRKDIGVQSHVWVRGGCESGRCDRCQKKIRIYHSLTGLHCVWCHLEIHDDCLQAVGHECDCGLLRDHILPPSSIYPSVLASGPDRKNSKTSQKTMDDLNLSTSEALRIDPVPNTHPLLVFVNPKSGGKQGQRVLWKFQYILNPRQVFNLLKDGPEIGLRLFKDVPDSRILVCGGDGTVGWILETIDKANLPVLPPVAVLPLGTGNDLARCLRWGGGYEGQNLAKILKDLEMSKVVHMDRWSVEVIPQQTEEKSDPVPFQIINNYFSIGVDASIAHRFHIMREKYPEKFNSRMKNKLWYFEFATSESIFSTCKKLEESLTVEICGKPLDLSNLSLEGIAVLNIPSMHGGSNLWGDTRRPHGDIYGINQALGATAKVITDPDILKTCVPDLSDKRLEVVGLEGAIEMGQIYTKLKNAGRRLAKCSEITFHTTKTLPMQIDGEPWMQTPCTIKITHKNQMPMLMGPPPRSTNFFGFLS

With `CC(c1ccc2nccnc2c1)N1C[C@H](C)N(c2cc(=O)n(C)c3cn(C4CC4)nc23)C[C@H]1C` (stereo partly drawn) [Compound A17, 2-cyclopropyl-7-((2S,5R)-2,5-dimethyl-4-(1-(quinoxalin-6-yl)ethyl)piperazin-1-yl)-4-methyl-2,4-dihydro-5H-pyrazolo[4,3-b]pyridin-5-one], the half-inhibitory concentration (IC50) at DGKα was 9000 nM; at DGKζ, 13000 nM.

In the case of `CC(c1ccc2nccnc2c1)N1C[C@H](C)N(c2cc(=O)n(C)c3cn(C(C)C)nc23)C[C@H]1C` (stereo partly shown) [Compound A18], the IC50 on DGKα was determined as 5700 nM; at DGKζ it was 3700 nM.

Turning to `CCS(=O)(=O)N1CC(CC#N)(n2cc3c(n2)c(N2C[C@@H](C)N(C(C)c4ccc5nccnc5c4)C[C@@H]2C)cc(=O)n3C)C1` (stereo partly drawn) [Compound A19, 2-(3-(7-((2S,5R)-2,5-dimethyl-4-(1-(quinoxalin-6-yl)ethyl)piperazin-1-yl)-4-methyl-5-oxo-4,5-dihydro-2H-pyrazolo[4,3-b]pyridin-2-yl)-1-(ethylsulfonyl)azetidin-3-yl)acetonitrile], the results for the IC50 against DGKα and on DGKζ were > 150000 nM and 24000 nM, respectively.

Turning to `CC(c1ccc2nccnc2c1)N1C[C@H](C)N(c2cc(=O)n(C)c3cn(C(CC#N)C4CCCC4)nc23)C[C@H]1C` (stereo partly drawn) [Compound A20, 3-cyclopentyl-3-(7-((2S,5R)-2,5-dimethyl-4-(1-(quinoxalin-6-yl)ethyl)piperazin-1-yl)-4-methyl-5-oxo-4,5-dihydro-2H-pyrazolo[4,3-b]pyridin-2-yl)propanenitrile], the results for the IC50 at DGKα and on DGKζ were > 150000 nM and 39000 nM, respectively.

As for `C#CCn1cc2c(n1)c(N1C[C@@H](C)N(C(C)c3ccc4nccnc4c3)C[C@@H]1C)cc(=O)n2C` (stereo partly shown) [Compound A21], the results for the IC50 against DGKα and on DGKζ were 5300 nM and 310 nM, respectively.

For `CC#CCn1cc2c(n1)c(N1C[C@@H](C)N([C@H](C)c3ccc4nccnc4c3)C[C@@H]1C)cc(=O)n2C` [Compound A22a, 2-(but-2-yn-1-yl)-7-((2S,5R)-2,5-dimethyl-4-((R)-1-(quinoxalin-6-yl)ethyl)piperazin-1-yl)-4-methyl-2,4-dihydro-5H-pyrazolo[4,3-b]pyridin-5-one], the IC50 came out at 1100 nM at DGKα and 13000 nM on DGKζ.

In the case of `CC#CCn1cc2c(n1)c(N1C[C@@H](C)N([C@@H](C)c3ccc4nccnc4c3)C[C@@H]1C)cc(=O)n2C` [Compound A22b, 2-(but-2-yn-1-yl)-7-((2S,5R)-2,5-dimethyl-4-((S)-1-(quinoxalin-6-yl)ethyl)piperazin-1-yl)-4-methyl-2,4-dihydro-5H-pyrazolo[4,3-b]pyridin-5-one], the IC50 is 190 nM at DGKα and 72 nM at DGKζ.

Take `CC#CCn1cc2c(n1)c(N1C[C@@H](CC)N(C(C)c3ccc4nccnc4c3)C[C@@H]1CC)cc(=O)n2C` (stereo partly drawn) [Compound A23, 2-(but-2-yn-1-yl)-7-((2S,5R)-2,5-diethyl-4-(1-(quinoxalin-6-yl)ethyl)piperazin-1-yl)-4-methyl-2,4-dihydro-5H-pyrazolo[4,3-b]pyridin-5-one]: the IC50 is 120 nM on DGKα and 57 nM on DGKζ.

As to `C=C(C)n1cc2c(n1)c(N1C[C@@H](C)N(C(C)c3ccc4nccnc4c3)C[C@@H]1C)cc(=O)n2C` (stereo partly drawn) [Compound A24, 7-((2S,5R)-2,5-dimethyl-4-(1-(quinoxalin-6-yl)ethyl)piperazin-1-yl)-4-methyl-2-(prop-1-en-2-yl)-2,4-dihydro-5H-pyrazolo[4,3-b]pyridin-5-one], the IC50 was found to be 150 nM against DGKα and 4300 nM at DGKζ.

For `C=C(C)n1cc2c(n1)c(N1C[C@@H](CC)N(C(C)c3ccc4nccnc4c3)C[C@@H]1CC)cc(=O)n2C` (stereo partly drawn) [Compound A25, 7-((2S,5R)-2,5-diethyl-4-(1-(quinoxalin-6-yl)ethyl)piperazin-1-yl)-4-methyl-2-(prop-1-en-2-yl)-2,4-dihydro-5H-pyrazolo[4,3-b]pyridin-5-one], the IC50 was 54 nM against DGKα and 510 nM on DGKζ.

`C=C(C)n1cc2c(n1)c(N1C[C@@H](C)N(Cc3ccc(OC(F)(F)F)cc3)C[C@@H]1C)cc(=O)n2C` [Compound A26, 7-((2S,5R)-2,5-dimethyl-4-(4-(trifluoromethoxy)benzyl)piperazin-1-yl)-4-methyl-2-(prop-1-en-2-yl)-2,4-dihydro-5H-pyrazolo[4,3-b]pyridin-5-one]: the IC50 against DGKα came out at 4.3 nM; on DGKζ, 98000 nM.

Turning to `C=C(C)n1cc2c(n1)c(N1C[C@@H](CC)N(Cc3ccc(OC(F)(F)F)cc3)C[C@@H]1CC)cc(=O)n2C` [Compound A27], the half-maximal inhibitory concentration (IC50) on DGKα is 4.3 nM; on DGKζ it was > 10000 nM.

Take `COCc1cc(F)ccc1C(C)N1C[C@H](C)N(c2cc(=O)n(C)c3cn(CC#N)nc23)C[C@H]1C` (stereo partly drawn) [Compound A29, 2-(7-((2S,5R)-4-(1-(4-fluoro-2-(methoxymethyl)phenyl)ethyl)-2,5-dimethylpiperazin-1-yl)-4-methyl-5-oxo-4,5-dihydro-2H-pyrazolo[4,3-b]pyridin-2-yl)acetonitrile]: the IC50 against DGKα stood at 23000 nM; on DGKζ, 110 nM.

As for `COCc1cc(C(C)N2C[C@H](C)N(c3cc(=O)n(C)c4cn(CC#N)nc34)C[C@H]2C)ccc1F` (stereo partly shown) [Compound A30], the IC50 against DGKα turned out to be 5100 nM; at DGKζ, 110 nM.

In the case of `COCc1ccc(C(C)N2C[C@H](C)N(c3cc(=O)n(C)c4cn(CC#N)nc34)C[C@H]2C)cc1` (stereo partly shown) [Compound A31], the IC50 on DGKα turned out to be 1200 nM; on DGKζ it was 8100 nM.

`COc1cc(F)c(C(C)N2C[C@H](C)N(c3cc(=O)n(C)c4cn(CC#N)nc34)C[C@H]2C)c(F)c1` (stereo partly shown) [Compound A32]: the results for the IC50 at DGKα and on DGKζ were 1200 nM and 230 nM, respectively.

On to `CC(c1ccc(F)cn1)N1C[C@H](C)N(c2cc(=O)n(C)c3cn(CC#N)nc23)C[C@H]1C` (stereo partly shown) [Compound A33], for which the IC50 is 160 nM against DGKα and > 10000 nM on DGKζ.

In the case of `CC(c1ccc2ncnn2c1)N1C[C@H](C)N(c2cc(=O)n(C)c3cn(CC#N)nc23)C[C@H]1C` (stereo partly shown) [Compound A34], the IC50 at DGKα amounted to 8300 nM; on DGKζ, 5800 nM.

Regarding `COc1cc(F)c(C(C)N2C[C@H](C)N(c3cc(=O)n(C)c4cn(CC#N)nc34)C[C@H]2C)cc1F` (stereo partly shown) [Compound A35], the IC50 came out at 870 nM against DGKα and 1200 nM at DGKζ.

With `CCC(c1ccc(C2CC2)cc1)N1C[C@H](C)N(c2cc(=O)n(C)c3cn(CC#N)nc23)C[C@H]1C` (stereo partly shown) [Compound A36], the IC50 on DGKα amounted to 550 nM; at DGKζ, 970 nM.

With `CC(c1ccccc1)N1C[C@H](C)N(c2cc(=O)n(C)c3cn(CC#N)nc23)C[C@H]1C` (stereo partly shown) [Compound A37], the IC50 at DGKα turned out to be 140 nM; on DGKζ, 5400 nM.

As to `COc1ccc(C(C)N2C[C@H](C)N(c3cc(=O)n(C)c4cn(CC#N)nc34)C[C@H]2C)cc1` (stereo partly shown) [Compound A38], the IC50 against DGKα turned out to be 899 nM; at DGKζ it was 610 nM.

For the compound `CC(c1ccc2cccnc2c1)N1C[C@H](C)N(c2cc(=O)n(C)c3cn(CC#N)nc23)C[C@H]1C` (stereo partly shown) [Compound A40], the values for the IC50 at DGKα and at DGKζ were 2300 nM and 270 nM, respectively.

For `Cc1nc2cc(C(C)N3C[C@H](C)N(c4cc(=O)n(C)c5cn(CC#N)nc45)C[C@H]3C)ccc2o1` (stereo partly shown) [Compound A41], the IC50 is > 10000 nM against DGKα and 1000 nM on DGKζ.

For the compound `Cc1nc2cccc(C(C)N3C[C@H](C)N(c4cc(=O)n(C)c5cn(CC#N)nc45)C[C@H]3C)c2o1` (stereo partly shown) [Compound A42], the half-inhibitory concentration (IC50) on DGKα is > 10000 nM; on DGKζ, 3390 nM.

As to `CC(c1ccc2c(c1)OCCO2)N1C[C@H](C)N(c2cc(=O)n(C)c3cn(CC#N)nc23)C[C@H]1C` (stereo partly shown) [Compound A43], the IC50 on DGKα is 2900 nM; at DGKζ, 65 nM.

On to `C[C@@H]1CN(c2cc(=O)n(C)c3cn(CC#N)nc23)[C@@H](C)CN1Cc1ccc2nccnc2c1` [Compound A44], for which the IC50 against DGKα worked out at 8100 nM; on DGKζ it was 610 nM.

Regarding `Cc1nc2c(C(C)N3C[C@H](C)N(c4cc(=O)n(C)c5cn(CC#N)nc45)C[C@H]3C)cccc2o1` (stereo partly shown) [Compound A45], the IC50 against DGKα was > 10000 nM; on DGKζ, 1420 nM.

In the case of `C[C@H]1CN([C@@H](C)c2ccc3c(c2)OC(C)(C)CO3)[C@@H](C)CN1c1cc(=O)n(C)c2cn(CC#N)nc12` [Compound A46a], the IC50 at DGKα and on DGKζ was > 10000 nM throughout.

Take `C[C@@H]1CN(c2cc(=O)n(C)c3cn(CC#N)nc23)[C@@H](C)CN1[C@@H](C)c1ccc2c(c1)OC(C)(C)CO2` [Compound A46b]: the IC50 worked out at 2570 nM at DGKα and 21 nM on DGKζ.

As for `CC[C@H]1CN(C(C)c2ccc3nccnc3c2)[C@H](CC)CN1c1cc(=O)n(CC)c2cn(CC#N)nc12` (stereo partly drawn) [Compound A47, 2-(7-((2S,5R)-2,5-diethyl-4-(1-(quinoxalin-6-yl)ethyl)piperazin-1-yl)-4-ethyl-5-oxo-4,5-dihydro-2H-pyrazolo[4,3-b]pyridin-2-yl)acetonitrile], the IC50 at DGKα was 4200 nM; on DGKζ, 9.3 nM.

Turning to `CC[C@H]1CN(C(C)c2ccc3cnccc3c2)[C@H](CC)CN1c1cc(=O)n(C)c2cn(CC#N)nc12` (stereo partly shown) [Compound A48], the IC50 against DGKα is 75 nM; at DGKζ, 73 nM.

Take `CC[C@H]1CN(C(C)c2ccn3ncnc3c2)[C@H](CC)CN1c1cc(=O)n(C)c2cn(CC#N)nc12` (stereo partly shown) [Compound A49]: the IC50 at DGKα is 130 nM; at DGKζ, 200 nM.

With `CC[C@H]1CN(C(C)c2ccc3ccccc3c2)[C@H](CC)CN1c1cc(=O)n(C)c2cn(CC#N)nc12` (stereo partly shown) [Compound A50], the IC50 was 790 nM against DGKα and 720 nM on DGKζ.

As to `[2H]C([2H])([2H])n1c(=O)cc(N2C[C@@H](CC)N(C(C)c3ccc4nccnc4c3)C[C@@H]2CC)c2nn(CC#N)cc21` (stereo partly shown) [Compound A51], the IC50 was 347 nM against DGKα and 7.8 nM at DGKζ.
